Data set [1] in a line: method code SF-AS, from DOI: 10.1016/0006-2952(75)90156-2, PMID: 235934. As to conditions: pH 7.4.
Data set [2] is described as follows: method code SF, from DOI: 10.1016/0378-5173(86)90155-9. Particulars: pH 7.0.
The nature of data set [3]: method code SF, from DOI: 10.1021/js9700917, PMID: 9452977. As to conditions: pH 5.5.
Assay in data set [4]: not given
The source holds these as a separate data set.

Assay in data set [5]: not given
The source holds these as a separate data set.

Assay in data set [6]: not given
The source holds these as a separate data set.

Assay in data set [7]: not given
This is another data set of the same source.

Assay in data set [8]: not given
The source holds these as a separate data set.

Assay in data set [9]: not given
This is another data set of the same source.

Data set [10] in a line: method code SF-GLC, from DOI: 10.1007/bf00212402, PMID: 7663085.
The nature of data set [11]: method code SF, from PMID: 2704. Particulars: pH 1.0.
Data set [12] in a line: method code SF-AS, from DOI: 10.1080/09553007214550551, PMID: 4537457.
Assay in data set [13]: not given
This is another data set of the same source.

Data set [14] in a line: method code SF, from DOI: 10.1016/s0378-5173(98)00231-2.
Assay in data set [15]: not given
This is another data set of the same source.

Data set [16] is described as follows: method code SF-AS, from DOI: 10.1248/cpb.15.1705, PMID: 5583828. Particulars: pH 1.1.
The nature of data set [17]: method code SF-RC, from DOI: 10.1002/jlcr.2580210110. As to conditions: pH 7.4.
Data set [18] is described as follows: method code SF, from DOI: 10.1248/yakushi1947.93.11_1452, PMID: 4273378.
The nature of data set [19]: method code SF-HPLC, from DOI: 10.1021/jm9509197, PMID: 8648601. Particulars: pH 7.4.
Assay in data set [20]: not given
This is another data set of the same source.

Data set [21] is described as follows: method code SF-GLC, from DOI: 10.1021/es60128a001.
Data set [22] in a line: method code SF-AS, from DOI: 10.1111/j.2042-7158.1980.tb13082.x, PMID: 6110743.
Data set [23] can be described thus: method code SF-AS, from DOI: 10.1016/0005-2736(69)90054-6, PMID: 5349616. As to conditions: pH 7.4.
Data set [24] is described as follows: method code SF-AS, from DOI: 10.1021/bi00405a042.
Assay in data set [25]: not given
This is another data set of the same source.

Data set [26] is described as follows: method code SF-HPLC, from DOI: 10.1161/01.res.55.4.513, PMID: 6478555.
Assay in data set [27]: not given
This is another data set of the same source.

Assay in data set [28]: not given
This is another data set of the same source.

A short description of data set [29]: method code SF-AS, from DOI: 10.1039/ft9959100995.
Assay in data set [30]: not given
This is another data set of the same source.

A short description of data set [31]: method code SF-HPLC, from DOI: 10.1177/074823378700300403, PMID: 3433285.
Assay in data set [32]: not given
The source holds these as a separate data set.

Data set [33] can be described thus: method code SF-NMR, from DOI: 10.1016/j.jpba.2012.12.010, PMID: 23298914.
Data set [34] in a line: method code SF-AS, from DOI: 10.1016/0021-9673(91)80064-n.
Data set [35] can be described thus: method code SF-AS, from DOI: 10.1135/cccc19822514. As to conditions: pH 3.5.

The results in this text go back to the SangsterLogP compilation.

`FC(F)(F)C1(F)C(F)(F)C(F)(F)C(F)(N2C(F)(F)C(F)(F)C(F)(F)C(F)(F)C2(F)F)C(F)(F)C1(F)F` (stereo unspecified): the logP (in general, the decadic logarithm of the partition coefficient of the neutral form, usually between octanol and water) came to 7.
Regarding `CC(C)Oc1ccc([N+](=O)[O-])cc1`, the logD (in general, the decadic logarithm of the distribution of all forms, ionised or not, between an organic phase and buffer at a given pH) in data set [1] amounted to 2.8.
In [2], `O=C(NCc1ccc(O)cc1)c1ccccc1` showed a logD of 1.87.
Consider `Cc1nc(NS(=O)(=O)c2ccc(N)cc2)oc1C`, for which the logD in [3] was found to be 0.2.
The compound `Clc1cc2c(Cl)c(Cl)c(Cl)c(Cl)c2c(Cl)c1Cl` showed a logP in data set [4] of 7.33.
In the case of `O=C(C(=O)c1ccc(Cl)cc1)c1ccccc1`, in data set [5], the logP was found to be 2.6.
Turning to `O=S(=O)(O)c1ccc(-c2ccc(S(=O)(=O)O)cc2)cc1`, in data set [6], the logP was found to be 0.3.
As for `CC(C)(N)Cc1ccc(Cl)cc1`, the logP in data set [7] came to 2.6.
Take `Cc1cc(Cl)ccc1OC(C)C(=O)O` (stereo unspecified): the logP in [8] was 2.95.
`O=NN(CCCl)C(=O)NC1CCCCC1O` (stereo unspecified) came in with a logP in data set [9] of 1.6.
In turn, `ClC1=C(Cl)C2(Cl)C3C(Cl)C(Cl)(Cl)CC3C1(Cl)C2(Cl)Cl` (stereo unspecified) registered a lipophilicity (logP) in [10] of 6.06.
On to `COc1ccc(C=O)cc1C`, for which the logD in data set [11] came out at 2.23.
In turn, `CC(C)(N)Cc1ccccc1` gave a logP in data set [7] of 1.9.
Compound `CC(=O)c1ccc(C)cc1` displayed a logP in [12] of 2.28.
Take `CCCOC(=O)c1ccccc1Cl`: in data set [13], the logP is 3.45.
The compound `OCCCCCCCc1ccccc1` gave a logP in data set [14] of 3.59.
For the compound `CON=C(C#N)C(=O)NC(CCS(C)(=O)=O)C(=O)O` (stereo unspecified), the logP in data set [15] is -0.52.
`ClC1=C(Cl)C2(Cl)C3CC=CC3C1(Cl)C2(Cl)Cl` (stereo unspecified) registered a logP in data set [10] of 5.57.
Take `CCC1(CCC(C)C)C(=O)NC(=O)NC1=O`: the logD in data set [16] was determined as 2.07.
`FC12CC3CC(CC(C3)C1)C2`: the logD in data set [17] is 5.7.
The compound `FC1(F)C(F)(F)C(F)(F)C2(F)C(F)(F)C(F)(F)C(F)(F)C(F)(F)C2(F)C1(F)F` (stereo unspecified) registered a logP of 6.
In [18], `CCCCNC(=O)c1cccnc1` yielded a logP of 0.9.
As to `O=[N+]([O-])c1ncnc2c1ncn2C1OC(CO)CC1F` (stereo unspecified), the logD in data set [19] is -0.4.
`OCCC(F)(F)C(F)(F)C(F)(F)C(F)(F)C(F)(F)C(F)(F)C(F)(F)C(F)(F)F`: the logP in data set [20] was determined as 6.14.
In the case of `CCOP(=S)(OCC)SCn1c(=O)oc2cc(Cl)ccc21`, the log partition coefficient (logP) in data set [21] was 4.3.
`CCCOc1cccc(O)c1`: the logP in [22] came to 2.59.
`c1ccc2c(c1)[nH]c1ccccc12` showed a logD in [23] of 3.29.
`CC(=O)NCCc1c[nH]c2ccccc12` returned a logP in data set [24] of 1.41.
In the case of `COc1ccc(C(C)=O)cc1`, the logP in data set [12] was 1.82.
`CCN(CC)C(=O)c1cccnc1`: the logP in [18] came out at 0.86.
As for `CCCCCOc1cccc(O)c1`, the logP in [22] is 3.63.
Compound `CN(C(=O)NC(C)(C)c1ccccc1)c1ccccc1` displayed a logP in [25] of 3.01.
In data set [4], `Clc1cc2c(Cl)cc(Cl)c(Cl)c2c(Cl)c1Cl` yielded a logP of 6.87.
In turn, `O=NN(CCCl)C(=O)NC1CCCC(O)C1` (stereo unspecified) returned a log partition coefficient (logP) in data set [9] of 1.28.
Regarding `OCCC(F)(F)C(F)(F)C(F)(F)C(F)(F)C(F)(F)C(F)(F)C(F)(F)C(F)(F)C(F)(F)C(F)(F)F`, the lipophilicity (logP) in data set [20] stood at 7.57.
As for `CCNCC(=O)Nc1c(C)cccc1C`, the logP in [26] was 1.32.
Take `COC(=O)c1ccccc1C(=O)OC`: in data set [27], the logP was found to be 1.9.
As for `ClC1=C(Cl)C2(Cl)C3C4OC4C(Cl)C3C1(Cl)C2(Cl)Cl` (stereo unspecified), the logP in [28] was 5.4.
`Nc1ccc2c(S(=O)(=O)O)cc(S(=O)(=O)O)cc2c1` yielded a lipophilicity (logP) in data set [6] of -1.6.
Regarding `CC(=O)Nc1ncc2ncn(COCCO)c2n1`, the logP in data set [29] was -1.33.
Take `CCSc1nnc(C(C)(C)C)c(=O)n1N`: the logP in [25] was determined as 2.08.
As to `CCNc1nc(Cl)nc(NC(C)CC)n1` (stereo unspecified), in data set [30], the logP stood at 3.02.
In the case of `COP(=S)(OC)SCn1nnc2ccccc2c1=O`, the logP in data set [31] came to 2.43.
The compound `CS(=O)CCCOc1ccc([N+](=O)[O-])cc1` (stereo unspecified) displayed a logD in data set [2] of 0.93.
`Cc1cc(Cl)ccc1OCCCC(=O)O` had a logP in [8] of 3.28.
`Nc1c2ncn(C3OC(CO)CC3F)c2nc[n+]1[O-]` (stereo unspecified) showed a logD in data set [19] of -0.98.
`CON=C(C#N)C(=O)N[C@@H](CCSC)C(=O)O` came in with a logP in data set [15] of 0.86.
In data set [32], `CC(=O)OC[C@H]1O[C@@H](n2cc(C)c(=O)[nH]c2=O)C[C@@H]1O` yielded a logP of -0.25.
As for `CCCCCCOC(=O)c1ccccc1C(=O)OCCCCCC`, in data set [27], the logP was 5.8.
Take `COC(=O)[C@@H](N)Cc1cc(I)c(O)c(I)c1`: the log distribution coefficient (logD) in [33] (pH 6.7) worked out at 0.95.
Regarding `C=CC(=O)NCCN1CCOCC1`, the logP in data set [34] is -0.55.
In [11], `COC(=O)COc1ccccc1` gave a logD of 1.41.
With `COC(=O)[C@@H](N)Cc1ccc(O)c(I)c1`, the logD in data set [33] (pH 7.7) is 0.26.
For the compound `Cc1cccc(C)c1NC(=O)CN`, the logP in [26] stood at 0.41.
In turn, `C=CCC1(CC)C(=O)NC(=O)NC1=O` came in with a logD in data set [16] of 0.95.
With `CNC(=O)N(C)c1nc2ccccc2s1`, the logP in data set [30] amounted to 2.38.
In data set [3], `NS(=O)(=O)c1ncncc1-c1ccccc1` yielded a logD of 0.5.
Turning to `O=C(O)CCc1ccccc1`, the logD in data set [35] came to 1.91.
Compound `C=CC(=O)NCCCN1CCOCC1` returned a lipophilicity (logP) in data set [34] of -0.52.
The compound `Cc1cn([C@H]2C[C@H](N=[N+]=[N-])[C@@H](CO)O2)c(=O)[nH]c1=O` displayed a logP in data set [32] of -0.09.
`OCCCCc1ccccc1` returned a logP in [14] of 2.33.
With `C=Cc1ccc(C=C)cc1`, the logP in data set [5] amounted to 3.2.
`CC(=O)OCCOCn1cnc2c(=O)[nH]c(N)nc21` gave a logP in data set [29] of -1.07.
Take `CC(=O)NCCc1ccccc1`: in [24], the logP came to 1.19.
`CCOP(=S)(OCC)Oc1ccc(Cl)cc1Cl` showed a logP in [21] of 5.14.
Consider `Cc1cc2ccccc2n1C`, for which, in data set [23], the logD turned out to be 2.82.
For `CCOC(=O)c1cccc(O)c1`, in [13], the logP turned out to be 2.47.
With `CCCCOc1ccc([N+](=O)[O-])cc1`, in data set [1], the logD worked out at 3.5.
In the case of `CC(C(=O)O)c1ccccc1` (stereo unspecified), the log distribution coefficient (logD) in data set [35] came out at 1.8.
In [28], `c1ccc(Nc2ccc3ccccc3c2)cc1` yielded a logP of 4.38.
The compound `CCN(CC)C(=O)c1ccccc1C` showed a logP in data set [31] of 2.02.
